Consider 3 compounds from patent US12275731B2, “Azaindole inhibitors of wild-type and mutant forms of LRRK2” (DANA-FARBER CANCER INSTITUTE, INC., priority 2018, dated 2025).

Common to all, as to assay: KinomeScan profiling
Common to all, as to assay type: binding

In one test the target is CIT (Homo sapiens, UniProt O14578). Particulars: read-out: % control. Put shortly:
(§1)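 Compounds were screened at 1 μM in DMSO across a 468-kinase KinomeScan panel. Binding was expressed as % control, scaled between a positive control (0%) and DMSO (100%) using luminescence signal. A value under 35% counted as active.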

The next test has as its target T1, DCAMKL2 (Homo sapiens, UniProt Q8N568).
T1 sequence (Q8N568 1-766): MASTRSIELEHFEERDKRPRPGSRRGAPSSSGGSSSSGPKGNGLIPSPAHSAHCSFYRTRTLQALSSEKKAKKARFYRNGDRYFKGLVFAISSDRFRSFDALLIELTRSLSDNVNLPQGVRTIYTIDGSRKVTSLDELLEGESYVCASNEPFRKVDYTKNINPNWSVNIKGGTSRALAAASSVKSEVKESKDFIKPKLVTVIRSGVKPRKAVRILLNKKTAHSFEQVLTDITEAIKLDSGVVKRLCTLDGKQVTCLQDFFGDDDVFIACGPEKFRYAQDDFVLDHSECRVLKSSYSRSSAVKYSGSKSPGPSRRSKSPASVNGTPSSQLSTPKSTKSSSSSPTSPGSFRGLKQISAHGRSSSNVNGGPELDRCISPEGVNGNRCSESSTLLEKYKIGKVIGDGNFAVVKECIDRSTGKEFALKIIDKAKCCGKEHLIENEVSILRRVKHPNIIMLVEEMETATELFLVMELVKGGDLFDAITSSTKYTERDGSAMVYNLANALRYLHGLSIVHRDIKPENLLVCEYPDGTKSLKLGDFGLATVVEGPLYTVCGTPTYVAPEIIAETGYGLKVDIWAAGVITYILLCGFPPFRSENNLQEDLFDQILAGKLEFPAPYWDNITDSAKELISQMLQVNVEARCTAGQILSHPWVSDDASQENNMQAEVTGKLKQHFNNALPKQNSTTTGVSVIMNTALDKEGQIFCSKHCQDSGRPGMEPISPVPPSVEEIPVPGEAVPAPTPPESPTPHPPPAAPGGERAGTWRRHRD
Particulars: DCAMKL2, 1 μM; read-out: % control. Put shortly:
as §1

In a further test the target is T2, EPHB1 (Homo sapiens, UniProt P54762).
T2 sequence (P54762 18-984): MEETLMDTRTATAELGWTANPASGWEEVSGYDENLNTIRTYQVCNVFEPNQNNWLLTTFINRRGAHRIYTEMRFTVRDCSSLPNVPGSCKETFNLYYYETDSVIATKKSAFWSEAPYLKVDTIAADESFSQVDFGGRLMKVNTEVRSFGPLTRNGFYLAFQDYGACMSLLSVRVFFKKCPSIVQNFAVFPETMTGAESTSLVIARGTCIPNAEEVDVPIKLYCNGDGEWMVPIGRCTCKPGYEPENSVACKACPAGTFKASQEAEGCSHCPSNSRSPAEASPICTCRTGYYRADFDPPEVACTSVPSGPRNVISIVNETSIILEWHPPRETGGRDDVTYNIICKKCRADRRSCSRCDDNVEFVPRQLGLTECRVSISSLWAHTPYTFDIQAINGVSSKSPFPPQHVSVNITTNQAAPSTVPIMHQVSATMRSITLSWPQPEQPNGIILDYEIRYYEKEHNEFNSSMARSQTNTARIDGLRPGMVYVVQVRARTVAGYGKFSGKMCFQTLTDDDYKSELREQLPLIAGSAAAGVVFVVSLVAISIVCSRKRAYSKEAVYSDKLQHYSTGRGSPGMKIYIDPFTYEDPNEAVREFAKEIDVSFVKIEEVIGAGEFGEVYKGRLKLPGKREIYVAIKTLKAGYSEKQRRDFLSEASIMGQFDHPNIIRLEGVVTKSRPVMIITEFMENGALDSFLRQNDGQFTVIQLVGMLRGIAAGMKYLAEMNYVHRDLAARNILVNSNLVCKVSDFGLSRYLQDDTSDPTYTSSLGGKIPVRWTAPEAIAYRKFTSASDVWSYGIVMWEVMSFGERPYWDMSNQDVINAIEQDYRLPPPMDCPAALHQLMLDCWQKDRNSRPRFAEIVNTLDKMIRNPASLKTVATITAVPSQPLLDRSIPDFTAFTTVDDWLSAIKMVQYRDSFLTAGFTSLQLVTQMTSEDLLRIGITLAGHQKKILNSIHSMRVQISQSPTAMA
The conditions noted are these: EPHB1, 1 μM; read-out: % control. Put shortly: as §1

The next test addresses GSK3B (Homo sapiens, UniProt P49841). Particulars: read-out: % control. The essentials: as §1
The target of a further test is T3, HUNK (Homo sapiens, UniProt P57058).
T3 sequence (P57058 1-714): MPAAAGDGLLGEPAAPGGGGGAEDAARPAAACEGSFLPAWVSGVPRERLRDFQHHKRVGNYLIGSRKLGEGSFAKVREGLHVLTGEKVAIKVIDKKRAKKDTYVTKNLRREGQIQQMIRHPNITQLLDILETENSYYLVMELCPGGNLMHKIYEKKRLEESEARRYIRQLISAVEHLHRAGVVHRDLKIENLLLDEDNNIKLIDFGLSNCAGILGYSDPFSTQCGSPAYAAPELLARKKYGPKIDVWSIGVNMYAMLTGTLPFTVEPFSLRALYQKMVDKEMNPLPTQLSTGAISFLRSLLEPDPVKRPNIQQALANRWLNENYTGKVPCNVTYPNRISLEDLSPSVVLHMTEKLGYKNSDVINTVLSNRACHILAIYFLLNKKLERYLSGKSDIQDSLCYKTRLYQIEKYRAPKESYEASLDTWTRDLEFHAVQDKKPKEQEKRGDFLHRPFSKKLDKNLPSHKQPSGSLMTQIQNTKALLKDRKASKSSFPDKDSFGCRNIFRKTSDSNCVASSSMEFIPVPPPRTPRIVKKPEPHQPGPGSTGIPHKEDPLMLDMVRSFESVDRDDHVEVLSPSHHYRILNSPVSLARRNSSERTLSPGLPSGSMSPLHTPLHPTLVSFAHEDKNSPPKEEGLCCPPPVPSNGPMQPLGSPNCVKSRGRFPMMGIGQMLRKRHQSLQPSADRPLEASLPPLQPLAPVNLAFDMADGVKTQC
The conditions noted are these: read-out: % control. Put shortly:
as §1

A further test has as its target T4, PIK3CA(H1047L) (Homo sapiens, UniProt P42336, H1047L).
T4 construct: purchased KinomeScan® (panel service)
The conditions noted are these: read-out: % control. The essentials: as §1

CIT, sequence (O14578 whole entry): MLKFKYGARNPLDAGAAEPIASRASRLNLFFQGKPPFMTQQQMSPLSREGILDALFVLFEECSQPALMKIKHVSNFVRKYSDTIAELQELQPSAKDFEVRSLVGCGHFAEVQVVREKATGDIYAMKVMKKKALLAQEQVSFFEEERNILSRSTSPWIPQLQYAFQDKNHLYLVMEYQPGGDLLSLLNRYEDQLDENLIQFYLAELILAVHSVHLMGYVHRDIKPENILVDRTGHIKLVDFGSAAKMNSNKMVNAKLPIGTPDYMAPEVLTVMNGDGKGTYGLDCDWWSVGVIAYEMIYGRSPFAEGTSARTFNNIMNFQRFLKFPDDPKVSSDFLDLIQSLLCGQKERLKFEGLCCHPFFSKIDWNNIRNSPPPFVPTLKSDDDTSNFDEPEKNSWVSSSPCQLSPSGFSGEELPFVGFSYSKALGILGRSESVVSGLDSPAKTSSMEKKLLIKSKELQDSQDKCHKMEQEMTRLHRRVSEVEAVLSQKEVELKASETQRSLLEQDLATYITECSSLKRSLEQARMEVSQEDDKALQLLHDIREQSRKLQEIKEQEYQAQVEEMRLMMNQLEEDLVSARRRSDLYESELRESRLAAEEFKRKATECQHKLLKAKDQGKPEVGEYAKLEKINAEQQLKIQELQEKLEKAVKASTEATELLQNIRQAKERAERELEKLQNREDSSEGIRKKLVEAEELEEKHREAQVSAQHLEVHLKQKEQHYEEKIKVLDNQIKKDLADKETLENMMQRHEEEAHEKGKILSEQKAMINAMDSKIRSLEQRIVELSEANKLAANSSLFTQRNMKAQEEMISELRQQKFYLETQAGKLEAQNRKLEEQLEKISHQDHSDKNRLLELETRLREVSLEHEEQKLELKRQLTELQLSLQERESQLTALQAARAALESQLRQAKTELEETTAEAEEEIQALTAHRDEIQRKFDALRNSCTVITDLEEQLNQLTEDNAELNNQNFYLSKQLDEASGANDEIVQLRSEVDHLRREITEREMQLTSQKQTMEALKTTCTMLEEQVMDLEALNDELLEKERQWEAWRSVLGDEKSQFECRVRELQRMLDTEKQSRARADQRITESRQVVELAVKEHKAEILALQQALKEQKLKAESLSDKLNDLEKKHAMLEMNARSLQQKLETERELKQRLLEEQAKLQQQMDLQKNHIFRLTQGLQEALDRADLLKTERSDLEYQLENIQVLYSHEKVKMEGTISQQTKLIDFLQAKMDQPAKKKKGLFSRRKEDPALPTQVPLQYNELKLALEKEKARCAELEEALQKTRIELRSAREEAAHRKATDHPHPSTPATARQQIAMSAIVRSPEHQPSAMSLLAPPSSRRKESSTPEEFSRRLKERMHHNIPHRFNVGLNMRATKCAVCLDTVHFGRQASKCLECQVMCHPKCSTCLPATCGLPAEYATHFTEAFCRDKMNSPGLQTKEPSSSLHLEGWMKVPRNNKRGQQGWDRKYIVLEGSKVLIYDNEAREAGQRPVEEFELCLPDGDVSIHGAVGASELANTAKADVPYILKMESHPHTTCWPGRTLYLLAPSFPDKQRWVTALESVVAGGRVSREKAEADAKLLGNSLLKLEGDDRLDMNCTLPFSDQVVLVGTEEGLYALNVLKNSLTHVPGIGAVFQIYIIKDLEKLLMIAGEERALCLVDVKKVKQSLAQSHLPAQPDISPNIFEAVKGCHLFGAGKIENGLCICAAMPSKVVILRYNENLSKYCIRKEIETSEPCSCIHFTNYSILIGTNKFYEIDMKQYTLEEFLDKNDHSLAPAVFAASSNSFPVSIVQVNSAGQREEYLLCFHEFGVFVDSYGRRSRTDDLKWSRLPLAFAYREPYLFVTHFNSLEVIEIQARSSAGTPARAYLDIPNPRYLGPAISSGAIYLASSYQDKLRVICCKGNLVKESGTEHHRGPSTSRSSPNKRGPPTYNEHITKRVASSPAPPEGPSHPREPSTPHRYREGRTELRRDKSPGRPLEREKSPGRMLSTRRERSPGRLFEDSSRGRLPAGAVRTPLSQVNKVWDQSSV
GSK3B, sequence (P49841 whole entry): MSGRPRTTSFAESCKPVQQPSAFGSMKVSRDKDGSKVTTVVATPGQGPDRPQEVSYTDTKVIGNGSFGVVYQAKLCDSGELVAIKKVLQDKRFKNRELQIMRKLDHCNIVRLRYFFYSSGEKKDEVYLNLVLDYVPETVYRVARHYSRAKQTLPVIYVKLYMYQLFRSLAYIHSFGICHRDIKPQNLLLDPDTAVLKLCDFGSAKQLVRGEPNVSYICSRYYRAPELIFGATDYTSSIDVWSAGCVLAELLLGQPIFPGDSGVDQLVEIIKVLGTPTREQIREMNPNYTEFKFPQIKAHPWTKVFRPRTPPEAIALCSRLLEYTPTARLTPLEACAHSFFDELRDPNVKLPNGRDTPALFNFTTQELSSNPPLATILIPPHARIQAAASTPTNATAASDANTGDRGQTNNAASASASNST
T4 sequence (P42336 whole entry H1047L): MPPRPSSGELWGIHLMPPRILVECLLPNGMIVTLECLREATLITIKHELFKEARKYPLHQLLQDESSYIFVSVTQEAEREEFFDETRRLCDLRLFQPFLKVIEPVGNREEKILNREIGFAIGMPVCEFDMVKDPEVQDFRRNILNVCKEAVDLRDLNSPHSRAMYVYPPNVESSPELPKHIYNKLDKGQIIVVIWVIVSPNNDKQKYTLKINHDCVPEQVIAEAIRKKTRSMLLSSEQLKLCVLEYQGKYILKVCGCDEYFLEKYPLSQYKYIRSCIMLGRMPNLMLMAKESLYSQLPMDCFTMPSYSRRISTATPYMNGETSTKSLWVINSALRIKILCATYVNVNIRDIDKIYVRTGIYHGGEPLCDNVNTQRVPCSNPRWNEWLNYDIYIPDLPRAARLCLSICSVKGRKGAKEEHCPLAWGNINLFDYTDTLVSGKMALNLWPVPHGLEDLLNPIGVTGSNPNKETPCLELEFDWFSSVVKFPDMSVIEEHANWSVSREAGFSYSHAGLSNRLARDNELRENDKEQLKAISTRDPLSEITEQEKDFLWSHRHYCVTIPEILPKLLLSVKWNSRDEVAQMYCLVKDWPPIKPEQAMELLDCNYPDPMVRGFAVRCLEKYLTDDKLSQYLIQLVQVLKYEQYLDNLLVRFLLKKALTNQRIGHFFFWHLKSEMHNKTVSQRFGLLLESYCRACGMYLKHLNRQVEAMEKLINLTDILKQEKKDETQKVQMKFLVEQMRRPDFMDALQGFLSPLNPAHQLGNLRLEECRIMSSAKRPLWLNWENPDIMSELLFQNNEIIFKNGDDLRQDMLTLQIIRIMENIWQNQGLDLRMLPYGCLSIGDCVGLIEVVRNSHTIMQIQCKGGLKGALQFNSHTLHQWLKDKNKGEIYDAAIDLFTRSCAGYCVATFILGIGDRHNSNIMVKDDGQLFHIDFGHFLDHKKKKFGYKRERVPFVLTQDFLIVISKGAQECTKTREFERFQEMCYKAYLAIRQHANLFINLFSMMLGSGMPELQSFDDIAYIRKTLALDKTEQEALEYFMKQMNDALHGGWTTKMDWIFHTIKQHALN

As for `CNc1c(-c2ccc(C(=O)N3CCC(N4CCOCC4)CC3)cc2)cnc2[nH]cc(Cl)c12` [Compound 96, (4-(3-chloro-4-(methylamino)-1H-pyrrolo[2,3-b]pyridin-5-yl)phenyl)(4-morpholinopiperidin-1-yl)methanone], the remaining binding at 1 µM at CIT was found to be 11%; on DCAMKL2 it was 78%; on EPHB1, 100%; on GSK3B, 63%; on HUNK, 100%; on PIK3CA(H1047L), 92%.

Turning to `O=C(c1ccc(-c2cnc3[nH]cc(Cl)c3c2NC2CCCC2)cc1)N1CCC(N2CCOCC2)CC1` [Compound 101, (4-(3-chloro-4-(cyclopentylamino)-1H-pyrrolo[2,3-b]pyridin-5-yl)phenyl)(4-morpholinopiperidin-1-yl)methanone], the remaining binding at 1 µM stood at 21% at CIT; 99% on DCAMKL2; 95% on EPHB1; 100% at GSK3B; 100% at HUNK; 100% at PIK3CA(H1047L).

Regarding `CNc1c(-c2cnn([C@H]3CCN(C(C)=O)C[C@@H]3F)c2)cnc2[nH]cc(Cl)c12` [Compound 77, 1-((3S,4S)-4-(4-(3-chloro-4-(methylamino)-1H-pyrrolo[2,3-b]pyridin-5-yl)-1H-pyrazol-1-yl)-3-fluoropiperidin-1-yl)ethan-1-one], the remaining binding at 1 µM worked out at 6.8% at CIT; 89% on DCAMKL2; 93% on EPHB1; 69% at GSK3B; 100% on HUNK; 97% on PIK3CA(H1047L).
